“And” between values parts separate entries of the source, which are not always exact repeats. Equal entries are not always repeated.
Experiments:
IL-8 = IL-8 in medium of poly I:C treated HaCaT cells, multiplex immunoassay; type: cell-based, human; settings: 24 h
Method: (§1) CBD was purchased from Sigma Israel. […] PEA was in powder form.
(§2) Samples were frozen and shipped on dry ice.
(§3) Analysis of cytokine content. Samples were shipped to Eve Technologies, Calgary (Canada) for analysis. Samples were analyzed using Human Focused 13-Plex Discovery Assay, a Multiplex immunoassay with fluorometric detection. Preliminary tests were conducted in order to determine samples dilution. The cytokines measured were granulocyte-macrophage colony-stimulating factor (GM-CSF), interferon gamma (IFNy), interleukin 1 beta (IL-1B), IL-2, IL-4, IL-5, IL-6, IL-8, IL-10, IL-12, IL-13, monocyte chemoattractant protein-1 (MCP-1) and tumor necrosis factor alpha (TNF-α).

TNF-α = TNF-α in medium of poly I:C treated HaCaT cells, multiplex immunoassay; type: cell-based, human; settings: 24 h
Method: (§4) CBD, PEA and DB. CBD was purchased from Sigma Israel. […] CBD was 3.18 mM solution in ethanol. DB was in pure liquid form. PEA was in powder form.
(§5) Procedure and administration of active compounds. […] Samples were frozen and shipped on dry ice.
as §3, with “(TNF-α). Results were calculated only for GM-CSF, IL-6, IL-8, MCP-1 and TNF-α.” for “(TNF-α).”

MCP-1 = MCP-1 in medium of poly I:C treated HaCaT cells, multiplex immunoassay; type: cell-based, human; settings: for MCP-1: 24 h
Method: as §4, §5
as §3, with “(TNF-α). Results were calculated only for GM-CSF, IL-6, IL-8, MCP-1 and TNF-α.” for “(TNF-α).”

HaCaT cells [1] = test: Toxicity on HaCaT cells, qualitative light-microscope assessment after 50 hours; type: cell-based, human
Method: as §4
Toxicity. HaCaT cells were incubated in 12 wells plates until 60-70% confluency was achieved. Subsequently, the cells were washed and incubated with medium containing PEA, DB or CBD. After 50 hours of incubation, the wells were observed under a light microscope and toxicity of the active compounds was assessed qualitatively by comparing the treated cells to controls incubated with vehicle. As concluded, under the conditions tested, PEA can be safely used in concentration of up to 50 μM, DB is non-toxic at concentrations of up to 0.01%, and CBD is non-toxic at concentration of up to 15 μM.

IL-6 = IL-6 in medium of poly I:C treated HaCaT cells, multiplex immunoassay; type: cell-based, human; settings: 24 h
Method: as §1, §2, §3

HaCaT cells [2] = test: Cell viability, crystal violet assay, poly I:C treated HaCaT cells; settings: for Cell viability increase: vs poly I:C alone; for Cell viability: 24 h
Method: (§6) Cell culture. The human keratinocyte cell line HaCaT was a kind gift from Prof. Joseph Kost (Department of Chemical Engineering, Ben-Gurion University of the Negev, Israel). Cells were cultured in Dulbecco's Modified Eagle Medium (DMEM) (Biological Industries, Kibbutz Beit-Haemek, Israel) supplemented with 1% antibiotic-antimycotic (Tivan Biotech, Kfar-Saba, Israel), 1mM sodium pyruvate, and 10% fetal bovine serum (FBS) (Biological Industries), and were maintained in an incubator with 5% CO2 at 37° C.
(§7) CBD was purchased from Sigma Israel. […] PEA was in powder form. A 30 mM stock solution was made by dissolving PEA in dimethyl sulfoxide (DMSO). […] All stocks were filtered using a 0.2 μm filter before use and further diluted to the required concentration in cell medium. Vehicle (control) solutions contained the corresponding amount of DMSO (0.007%).
90,000 cells/well were plated on 12-well plates and allowed to attach at 37° C. for 24 hours. Subsequently, the wells were washed with phosphate-buffered saline (PBS) and the medium was replaced with a medium containing either vehicle (control) or poly I:C. […] The wells were then incubated for further 24 h and 50μL samples were drawn for analysis of cytokines. Samples were frozen and shipped on dry ice.
Cell viability assay. Cell viability was measured using a crystal violet assay. 90,000 cells/well were plated on 12-well plates and allowed to attach at 37° C. for 24 hours. […] 24 hours later medium was aspirated, and cells were washed twice with PBS. 500 μL of crystal violet staining solution (0.5% (w/v) crystal violet powder, 20% methanol) was added to each well, followed by incubation for 30 min at room temperature. The staining solution was discarded, the plates were washed 5 times with distilled water and dried, and 500 μL of 10% acetic acid (v/v) was added to each well. Absorbance was measured at 595 nm.

GM-CSF = GM-CSF in medium of poly I:C treated HaCaT cells, multiplex immunoassay; type: cell-based, human; settings: 24 h
Method: as §4, §5
as §3, with “(TNF-α). Results were calculated only for GM-CSF, IL-6, IL-8, MCP-1 and TNF-α.” for “(TNF-α).”

[3] = test system: GM-CSF, IL-6, IL-8, MCP-1 and TNF-α; test: Five inflammatory cytokines taken together, poly I:C treated HaCaT cells; type: cell-based, human; settings: higher dose (10 μM) with poly I:C 100 μg/mL
Method: as §6, §7
90,000 cells/well were plated on 12-well plates and allowed to attach at 37° C. for 24 hours. […]
as §3, with “Samples were shipped to Eve Technologies, Calgary (Canada) for analysis.” left out, “Preliminary tests were conducted in order to determine samples dilution.” left out

[4] = CBD 3 μM with poly I:C 100 μg/mL
[5] = CBD 3 μM with poly I:C 100 μg/mL, percent of poly I:C alone
[6] = CBD 10 μM with poly I:C 100 μg/mL
[7] = CBD 10 μM with poly I:C 100 μg/mL, percent of poly I:C alone
[8] = PEA 0.2 μM with poly I:C 100 μg/mL
[9] = PEA 0.2 μM with poly I:C 100 μg/mL, percent of poly I:C alone
[10] = PEA 2 μM with poly I:C 100 μg/mL
[11] = PEA 2 μM with poly I:C 100 μg/mL, percent of poly I:C alone
[12] = poly I:C 20 μg/mL, percent of control values
[13] = poly I:C 50 μg/mL, percent of control values
[14] = poly I:C 100 μg/mL, percent of control values

C=C(C)[C@@H]1CCC(C)=C[C@H]1c1c(O)cc(CCCCC)cc1O [CBD, 2-[(1R,6R)-6-isopropenyl-3-methylcyclohex-2-en-1-yl]-5-pentylbenzene-1,3-diol]
IL-8 (IL-8; [4]): 643.44 pg/mL | IL-8 (IL-8; [5]): 70.05% | IL-8 (IL-8; [6]): 335.44 pg/mL | IL-8 (IL-8; [7]): 36.52% | TNF-α (TNF-α; [4]): 3.277 pg/mL | TNF-α (TNF-α; [5]): 50.64% | TNF-α (TNF-α; [6]): 1.517 pg/mL | TNF-α (TNF-α; [7]): 23.44% | MCP-1 (MCP-1; [4]): 956.97 pg/mL and 945.97 pg/mL | MCP-1 (MCP-1; [5]): 54.77% | MCP-1 (MCP-1; [6]): 272.60 pg/mL | MCP-1 (MCP-1; [7]): 15.78% | Toxicity (HaCaT cells [1]; 5 μM, 50 hours): non toxic | Toxicity (HaCaT cells [1]; 15 μM, 50 hours): non toxic | Toxicity (HaCaT cells [1]; 45 μM, 50 hours): very toxic | non-toxic (safely used) concentration (HaCaT cells [1]; HaCaT cells, 50 hours, under the conditions tested): up to 15 μM | IL-6 (IL-6; [4]): 18.95 pg/mL | IL-6 (IL-6; [5]): 53.94% and 53.04% | IL-6 (IL-6; [6]): 12.15 pg/mL | IL-6 (IL-6; [7]): 34.57% | Cell viability increase (HaCaT cells [2]; 3 μM with poly I:C 100 μg/mL): 5.5% | Cell viability increase (HaCaT cells [2]; 10 μM with poly I:C 100 μg/mL): 15.3% | Cell viability (HaCaT cells [2]; [4]): 1.328 O.D. | Cell viability (HaCaT cells [2]; [5]): 105.50% | Cell viability (HaCaT cells [2]; [6]): 1.451 O.D. | Cell viability (HaCaT cells [2]; [7]): 115.29% | GM-CSF (GM-CSF; [4]): 56.44 pg/mL | GM-CSF (GM-CSF; [5]): 73.32% | GM-CSF (GM-CSF; [6]): 49.55 pg/mL | GM-CSF (GM-CSF; [7]): 64.37% | All cytokines measured reduced [3]: 60-80%

CCCCCCCCCCCCCCCC(=O)NCCO [PEA, palmitoylethanolamide]
IL-8 (IL-8; [8]): 810.38 pg/mL | IL-8 (IL-8; [9]): 88.23% | IL-8 (IL-8; [10]): 773.38 pg/mL and 773.27 pg/mL | IL-8 (IL-8; [11]): 84.19% | TNF-α (TNF-α; [8]): 4.673 pg/mL | TNF-α (TNF-α; [9]): 72.23% | TNF-α (TNF-α; [10]): 4.470 pg/mL | TNF-α (TNF-α; [11]): 69.09% | MCP-1 (MCP-1; [8]): 1345.28 pg/mL | MCP-1 (MCP-1; [9]): 77.88% | MCP-1 (MCP-1; [10]): 1554.20 pg/mL | MCP-1 (MCP-1; [11]): 89.98% | non-toxic (safely used) concentration (HaCaT cells [1]; human, 50 h): up to 50 μM | IL-6 (IL-6; [8]): 27.43 pg/mL | IL-6 (IL-6; [9]): 78.08% | IL-6 (IL-6; [10]): 27.23 pg/mL | IL-6 (IL-6; [11]): 77.49% | Cell viability (HaCaT cells [2]; [8]): 1.443 O.D. | Cell viability (HaCaT cells [2]; [10]): 1.413 O.D. | Cell viability (HaCaT cells [2]; human, 0.2 μM): 114.66% | Cell viability (HaCaT cells [2]; human, 2 μM): 112.28% | GM-CSF (GM-CSF; [8]): 60.36 pg/mL | GM-CSF (GM-CSF; [9]): 78.42% | GM-CSF (GM-CSF; [10]): 57.54 pg/mL | GM-CSF (GM-CSF; [11]): 74.75%

polyinosinic:polycytidylic acid [Poly I:C]
IL-8 (IL-8; poly I:C 20 μg/mL alone): 657.01 pg/mL | IL-8 (IL-8; [12]): 330.64% | IL-8 (IL-8; poly I:C 50 μg/mL alone): 729.48 pg/mL | IL-8 (IL-8; [13]): 367.11% | IL-8 (IL-8; poly I:C 100 μg/mL alone): 918.50 pg/mL | IL-8 (IL-8; [14]): 462.24% | TNF-α (TNF-α; poly I:C 20 μg/mL alone): 2.74 pg/mL | TNF-α (TNF-α; poly I:C 20 μg/mL, percent of control values, control below the standard curve): 846.39% | TNF-α (TNF-α; poly I:C 50 μg/mL alone): 3.81 pg/mL | TNF-α (TNF-α; poly I:C 50 μg/mL, percent of control values, control below the standard curve): 1179.38% | TNF-α (TNF-α; poly I:C 100 μg/mL alone): 6.47 pg/mL and 6.470 pg/mL | TNF-α (TNF-α; poly I:C 100 μg/mL, percent of control values, control below the standard curve): 2001.03% | MCP-1 (MCP-1; poly I:C 20 μg/mL alone): 369.54 pg/mL | MCP-1 (MCP-1; [12]): 704.95% | MCP-1 (MCP-1; poly I:C 50 μg/mL alone): 711.76 pg/mL | MCP-1 (MCP-1; [13]): 1357.80% | MCP-1 (MCP-1; poly I:C 100 μg/mL alone): 1727.32 pg/mL | MCP-1 (MCP-1; [14]): 3295.15% | increase in cytokine concentration, MCP-1 (MCP-1; poly I:C 100 μg/mL, vs control): up to 33 fold | IL-6 (IL-6; poly I:C 20 μg/mL alone): 14.07 pg/mL | IL-6 (IL-6; [12]): 523.57% | IL-6 (IL-6; poly I:C 50 μg/mL alone): 19.50 pg/mL | IL-6 (IL-6; [13]): 725.81% | IL-6 (IL-6; poly I:C 100 μg/mL alone): 35.14 pg/mL | IL-6 (IL-6; [14]): 1307.82% | Cell viability (HaCaT cells [2]; poly I:C 20 μg/mL alone): 1.827 O.D. | Cell viability (HaCaT cells [2]; poly I:C 50 μg/mL alone): 1.714 O.D. | Cell viability (HaCaT cells [2]; poly I:C 100 μg/mL alone): 1.259 O.D. | GM-CSF (GM-CSF; poly I:C 20 μg/mL alone): 53.09 pg/mL | GM-CSF (GM-CSF; [12]): 266.74% | GM-CSF (GM-CSF; poly I:C 50 μg/mL alone): 62.68 pg/mL | GM-CSF (GM-CSF; [13]): 314.94% | GM-CSF (GM-CSF; poly I:C 100 μg/mL alone): 76.98 pg/mL | GM-CSF (GM-CSF; [14]): 386.75%
